# Experiments:
# [1] = target: CDK12/Cyclin K (Homo sapiens, UniProt Q9NYV4); test: Inhibition of CDK12/Cyclin K (unknown origin) preincubated for 10 mins followed by substrate and ATP addition measured after 200 mins by ADP-Glo luminescence assay; assay type: protein-complex assay
# [2] = target: Cyclin-dependent kinase 13/Cyclin-K (Homo sapiens, UniProt Q14004); test: Inhibition of CDK13/Cyclin K (unknown origin) preincubated for 10 mins followed by substrate and ATP addition measured after 200 mins by ADP-Glo luminescence assay; assay type: protein-complex assay
# Cyclin-dependent kinase 13/Cyclin-K, sequence (Q14004 whole entry): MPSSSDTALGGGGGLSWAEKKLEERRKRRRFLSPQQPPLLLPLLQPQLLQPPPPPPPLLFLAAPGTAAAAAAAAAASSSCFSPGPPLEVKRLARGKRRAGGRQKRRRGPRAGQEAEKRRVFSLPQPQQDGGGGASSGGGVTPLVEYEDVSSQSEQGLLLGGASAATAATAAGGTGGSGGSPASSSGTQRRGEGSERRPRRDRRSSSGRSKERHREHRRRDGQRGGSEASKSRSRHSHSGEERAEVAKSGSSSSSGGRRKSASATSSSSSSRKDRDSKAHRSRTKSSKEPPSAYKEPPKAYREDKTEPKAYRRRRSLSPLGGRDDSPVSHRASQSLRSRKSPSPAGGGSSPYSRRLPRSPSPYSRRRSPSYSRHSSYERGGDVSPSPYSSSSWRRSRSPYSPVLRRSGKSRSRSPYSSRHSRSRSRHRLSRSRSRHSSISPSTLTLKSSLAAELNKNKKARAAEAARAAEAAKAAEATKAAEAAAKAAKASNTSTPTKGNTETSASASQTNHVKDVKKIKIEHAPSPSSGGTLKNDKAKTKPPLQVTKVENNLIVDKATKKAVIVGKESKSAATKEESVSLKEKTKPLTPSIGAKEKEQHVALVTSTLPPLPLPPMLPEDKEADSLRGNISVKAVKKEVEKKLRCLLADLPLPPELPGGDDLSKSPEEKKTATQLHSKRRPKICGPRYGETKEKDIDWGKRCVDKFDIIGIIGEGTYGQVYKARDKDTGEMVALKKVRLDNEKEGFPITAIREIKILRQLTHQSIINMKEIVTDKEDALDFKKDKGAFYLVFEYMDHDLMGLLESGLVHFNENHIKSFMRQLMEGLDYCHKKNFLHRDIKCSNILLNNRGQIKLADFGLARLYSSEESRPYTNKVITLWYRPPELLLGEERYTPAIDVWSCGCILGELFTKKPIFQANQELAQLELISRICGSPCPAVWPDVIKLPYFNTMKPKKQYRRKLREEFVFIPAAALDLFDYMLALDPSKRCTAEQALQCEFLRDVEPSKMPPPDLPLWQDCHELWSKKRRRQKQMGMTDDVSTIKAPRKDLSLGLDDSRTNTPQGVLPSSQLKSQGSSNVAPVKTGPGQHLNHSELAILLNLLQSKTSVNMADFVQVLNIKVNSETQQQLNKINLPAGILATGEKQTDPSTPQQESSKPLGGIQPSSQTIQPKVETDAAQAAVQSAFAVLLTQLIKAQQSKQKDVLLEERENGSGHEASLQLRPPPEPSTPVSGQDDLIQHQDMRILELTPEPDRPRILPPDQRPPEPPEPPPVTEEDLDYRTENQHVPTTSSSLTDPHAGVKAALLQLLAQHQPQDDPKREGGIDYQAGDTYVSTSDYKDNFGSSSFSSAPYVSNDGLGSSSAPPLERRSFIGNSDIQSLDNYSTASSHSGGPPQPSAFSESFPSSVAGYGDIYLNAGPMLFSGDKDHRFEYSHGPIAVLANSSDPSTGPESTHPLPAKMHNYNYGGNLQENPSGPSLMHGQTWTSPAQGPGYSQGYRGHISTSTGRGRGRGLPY
# Cyclin-dependent kinase 13/Cyclin-K, sequence (O75909 whole entry, further chain): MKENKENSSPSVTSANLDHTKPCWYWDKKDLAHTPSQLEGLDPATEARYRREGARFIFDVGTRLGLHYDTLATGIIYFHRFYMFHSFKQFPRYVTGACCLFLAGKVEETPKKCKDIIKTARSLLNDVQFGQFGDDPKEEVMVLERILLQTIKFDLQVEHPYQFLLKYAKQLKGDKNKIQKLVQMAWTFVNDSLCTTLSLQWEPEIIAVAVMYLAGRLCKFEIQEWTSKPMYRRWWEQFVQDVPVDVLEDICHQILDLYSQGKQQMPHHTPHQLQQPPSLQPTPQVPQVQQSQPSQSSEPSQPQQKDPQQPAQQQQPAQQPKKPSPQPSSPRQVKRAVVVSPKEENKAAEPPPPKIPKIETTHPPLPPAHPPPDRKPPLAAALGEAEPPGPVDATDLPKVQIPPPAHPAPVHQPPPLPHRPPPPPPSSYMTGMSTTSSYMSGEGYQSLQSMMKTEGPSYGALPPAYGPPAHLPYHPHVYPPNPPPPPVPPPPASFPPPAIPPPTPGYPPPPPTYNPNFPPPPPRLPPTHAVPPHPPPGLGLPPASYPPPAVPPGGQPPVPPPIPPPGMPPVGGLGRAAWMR
# [3] = test system: BT-474; test: Cytotoxicity against human BT-474 cells incubated for 48 hrs by CCK-8 reagent microplate reader assay; assay type: functional, cell-based; details: BT-474, 48 h
# [4] = target: T1, CDK12/Cyclin K (Homo sapiens) (UniProt O75909+Q9NYV4); test: Inhibition of CDK12/Cyclin K (unknown origin) at 0.1 uM preincubated for 10 mins followed by substrate and ATP addition measured after 200 mins by ADP-Glo luminescence assay relative to control; assay type: protein-complex assay; details: time 210.0 min
# T1 sequence (O75909 whole entry, looked up): as the sequence (O75909 whole entry, further chain) above
# T1 sequence (Q9NYV4 whole entry, looked up): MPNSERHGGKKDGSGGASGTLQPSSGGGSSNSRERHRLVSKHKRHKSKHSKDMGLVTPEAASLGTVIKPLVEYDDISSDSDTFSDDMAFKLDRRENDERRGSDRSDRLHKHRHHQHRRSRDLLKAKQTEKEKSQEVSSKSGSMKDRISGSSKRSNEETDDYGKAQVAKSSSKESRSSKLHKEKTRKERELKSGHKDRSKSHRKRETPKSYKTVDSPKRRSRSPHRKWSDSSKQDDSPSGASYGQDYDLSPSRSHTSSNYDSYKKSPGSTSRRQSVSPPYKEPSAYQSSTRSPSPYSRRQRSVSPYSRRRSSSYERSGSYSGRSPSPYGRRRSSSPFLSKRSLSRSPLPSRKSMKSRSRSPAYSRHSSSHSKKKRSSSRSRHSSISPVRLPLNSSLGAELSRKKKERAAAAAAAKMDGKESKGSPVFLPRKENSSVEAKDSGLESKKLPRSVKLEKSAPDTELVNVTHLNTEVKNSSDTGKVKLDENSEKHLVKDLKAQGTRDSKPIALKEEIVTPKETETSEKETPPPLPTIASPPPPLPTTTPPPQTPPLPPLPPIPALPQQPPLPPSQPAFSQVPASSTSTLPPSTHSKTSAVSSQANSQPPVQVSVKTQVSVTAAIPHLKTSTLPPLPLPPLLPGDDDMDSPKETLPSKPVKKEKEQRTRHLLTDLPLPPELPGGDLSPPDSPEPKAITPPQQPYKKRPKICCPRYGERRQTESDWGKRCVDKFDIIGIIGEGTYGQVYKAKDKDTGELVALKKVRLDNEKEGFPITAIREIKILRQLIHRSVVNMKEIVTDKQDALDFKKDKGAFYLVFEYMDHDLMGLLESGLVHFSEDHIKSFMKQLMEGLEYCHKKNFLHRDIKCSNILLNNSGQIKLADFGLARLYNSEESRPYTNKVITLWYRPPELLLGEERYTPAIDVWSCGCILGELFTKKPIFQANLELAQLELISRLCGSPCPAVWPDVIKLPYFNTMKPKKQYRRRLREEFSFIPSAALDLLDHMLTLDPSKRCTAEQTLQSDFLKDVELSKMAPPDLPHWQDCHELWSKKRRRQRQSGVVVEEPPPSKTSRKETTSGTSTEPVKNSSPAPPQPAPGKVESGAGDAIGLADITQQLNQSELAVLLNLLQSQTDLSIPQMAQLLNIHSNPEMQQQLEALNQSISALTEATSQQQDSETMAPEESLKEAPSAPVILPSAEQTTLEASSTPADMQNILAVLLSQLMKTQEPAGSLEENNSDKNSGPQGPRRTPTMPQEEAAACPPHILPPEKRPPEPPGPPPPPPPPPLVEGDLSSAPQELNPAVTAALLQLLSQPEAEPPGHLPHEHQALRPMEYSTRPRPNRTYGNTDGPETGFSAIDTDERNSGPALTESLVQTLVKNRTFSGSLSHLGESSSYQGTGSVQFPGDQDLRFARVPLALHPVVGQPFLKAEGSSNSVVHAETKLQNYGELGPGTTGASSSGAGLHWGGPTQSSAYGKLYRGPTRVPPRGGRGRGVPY
# [5] = target: T1, CDK12/Cyclin K (Homo sapiens); test: Inhibition of CDK12/Cyclin K (unknown origin) at 1 uM preincubated for 10 mins followed by substrate and ATP addition measured after 200 mins by ADP-Glo luminescence assay relative to control; assay type: protein-complex assay; details: time 210.0 min
# [6] = target: T1, CDK12/Cyclin K (Homo sapiens); test: Inhibition of CDK12/Cyclin K (unknown origin) at 10 uM preincubated for 10 mins followed by substrate and ATP addition measured after 200 mins by ADP-Glo luminescence assay relative to control; assay type: protein-complex assay; details: time 210.0 min
# CDK12/Cyclin K, sequence (O75909 whole entry): as the sequence (O75909 whole entry, further chain) above
# CDK12/Cyclin K, sequence (Q9NYV4 whole entry): as the sequence (Q9NYV4 whole entry, looked up) above
IC50 [1] [nM],IC50 [2] [nM],inhibition [4] [%],inhibition [5] [%],inhibition [6] [%],Structure (SMILES),IC50 [3] [nM]
143,206,–,–,–,Cn1cc(C2=C(c3cn(CCCSC(=N)N)c4ccccc34)C(=O)NC2=O)c2ccccc21 [BISINDOLYLMALEIMIDE IX],–
74.4,29.3,–,–,–,C=CC(=O)Nc1cccc(Nc2cc(N3CCCC[C@H]3CCO)nc3c(CC)cnn23)c1,490
749,–,–,–,–,O=C1CC[C@@H](N2C(=O)c3cccc(OCCCCCOc4ccc(CC(=O)Nc5cc(C6CCC6)[nH]n5)cc4)c3C2=O)C(=O)N1,42300
425,–,–,–,–,COc1cc(F)ccc1-c1cc(Nc2cc(C[S@@](C)(=N)=O)ccn2)ncc1F,853
–,–,–,–,–,Cc1cc(O)c(-c2ccc([C@@H](C)CN)cc2)c2c1[nH]c(=O)c1sccc12,6260
260,154,–,–,–,NCCCNc1ccc(Nc2nccc(Nc3cc(C4CC4)[nH]n3)n2)cc1,9110
152,40,98.7,96.7,33,CN(C)C/C=C/C(=O)Nc1ccc(C(=O)N2CCC[C@@H](Nc3ncc(Cl)c(-c4c[nH]c5ccccc45)n3)C2)cc1,–
53,21.5,–,–,–,Cn1ncc(-c2nc(N[C@H]3CC[C@H](N)CC3)ncc2F)c1CC1CC1,11300
183,187,–,–,–,CN1CCN(Cc2ccc(NC(=O)c3n[nH]cc3Nc3ncnc4[nH]ccc34)cc2)CC1,23900

# Source: ChEMBL document CHEMBL5335776, “Development, validation, and evaluation of a deep learning model to screen cyclin-dependent kinase 12 inhibitors in cancers” (Eur J Med Chem, 2023)
